Source: publication PMC7497641, “Neurotropic activity and safety of methylene-cycloalkylacetate (MCA) derivative 3-(3-allyl-2-methylenecyclohexyl) propanoic acid” (ACS Chemical Neuroscience, 2020)

Assays:
Test in all cases: PhosphoSens CSox based kinase assay
Type in all cases: biochemical
[1] = target: T1, AKT1 (Homo sapiens, UniProt P31749); conditions: 5 μM HU-MCA-13
T1 construct: AKT1, amino acids 104-480, Carna (cat. & lot #: 01 -101,; purchased Carna 01-101
Excerpt: (§1) The initial focus was to measure the modulatory activity in vitro of MCA-13 on protein kinases which were reported to be involved in induction of neurite outgrowth.[18],[43] To do this, we took advantage of a powerful method to measure the activity of recombinant protein kinases using a homogeneous and continuous (kinetic) format, where the level of chelation-enhanced fluorescence (CHEF) is directly proportional to the amount of phosphorylated, real-time sensors consisting of sulfonamido-oxine (Sox) chromophore linked to a peptide or protein substrates of selective kinases.[44] This assay is ideal for elucidating drug mechanism of action and is increasingly being applied earlier in the drug development workflow to address off target effects and/or the challenges and opportunities for next generation protein kinase inhibitors.[45] Since neurotrophins induce neurite outgrowth by activating the different tropomyosin kinase receptors (Trk), and small molecules agonists of Trk receptors can selectively activate Trks,[46] we first investigated the ability of HU-MCA-13 to modulate TRKA, TRKB and TRKC phosphorylation activities (Supporting Information, Figure S3-2). […] The TRKs constructs used in the assay contained only the intracellular kinase domain (amino acids 442–786) and therefore presently we cannot exclude that HU-MCA-13 may interact with the TRKs extracellular domain thereby inducing the conformational change required for the kinase domain activation. […] Moreover, no effects of HU-MCA-13were found on other kinases (ASK1, ERK2, JNK3, p38α, CDK5, KDR-VEGFR, AKT1, GSK3β, PDGFRβ, PKACα, PKC, CK1, IKKβ) which stimulate neurite outgrowth. Also, no effects were observed of HU-MCA-13 on kinases (EGFR, IGF1R, FGFR 1 and 2, CAMK2α,) which inhibit neurite outgrowth or calcineurin phosphatase which dephosphorylates the neurite outgrowth stimulatory protein, cofilin.[47]
(§2) MCA-13 safety b y in vitro eval uati on usi ng Phos pho Sens®C Soxb ased kinase […]
(§3) Method: Kinase Activity Measurements
(§4) Kinase activity was measured continuously using the PhosphoSens®technology (AssayQuant Technologies Inc., Marlborough, MA) according to the manufacturers’ recommendations (http://www.assayquant.com/) . This one-step homogeneous assay use s chelation-enh anced fluorescence via optimized substrate sensors unique for each kinase, containing the unnatural fluorogenic amino-acid Sox.
(§5) The following kinases which, upon stimulation or inhibition with small molecule modulators, induced neurite outgrowth, were obtained from different companies and were used in this study at the following concentrations: 2.
(§6) 25 µL final reaction volume including : 2.5 µl Sox-based substrate (10 x), 17.5 µl reaction mix with AT P, 5.0 µL Kinase [5x in EDB (Enzyme Dilution Buffer : 20 mM TRIS, pH 8.0, 0.01% Brij -35, 0.1 mM EGTA, 5% Glycerol, 1 mM DTT, 1 mg/mL Bovine Serum Albumin]. 5-45 min preincubation (all except EDB/kinase) at 30 °C of substrate in reaction mix and ATP ensuring that the progress kinetic curve for the background fluorescence w as flat. Reaction was run at 30 °C for […]
(§7) Final Reaction Conditions.
(§8) Protein kinase activity was determined in 54 mM HEPES, pH 7.5 1 mM ATP 1.2 mM DTT (none in ASK1) 0.012% Brij-35 1% glycerol 0.2 mg/ml BSA 0.52 mM EGTA (none in assays of CAMK2α, PKCε, PKCι, Calcineurin A/B) 140 µM phosphatidylserine/3.8 µM diacylglycerol (PKCε, PKCι only) 5 ng/µl calmodulin/0.4 mM CaCl2 (CAMK2α, Calcineurin A/B only) 10 mM […]
(§9) IKKβ, AKT1, GSK3β, PKCε, PKCι, PKACα, KDR, CK1δ, EGFR, ASK1, IGF1R, CAMK2α, DLK, FGFR2, FGFR1) in the presence or absence of 5 µ M H U-MCA-13 test compound. All components e xcept enzyme were equilibrated to 30 °C prior to setting up reactions run in Corning, 384-well, white flat round bottom polystyrene NBS microplates (Cat. #3824) after sealing using optically-clear adhesive film [TopSealA -Plus plate seal, PerkinElmer (Cat. #6050185)], applied with a roller to eliminate evaporation and resulting drift. Europium was added to a final […]

[2] = target: T2, ASK1 (Homo sapiens, UniProt Q99683); conditions: 5 μM HU-MCA-13
T2 construct: ASK1, amino acids 1-1374, Invitrogen; purchased Invitrogen PV3809
T2 sequence (Q99683 whole entry, the tested form may be a part): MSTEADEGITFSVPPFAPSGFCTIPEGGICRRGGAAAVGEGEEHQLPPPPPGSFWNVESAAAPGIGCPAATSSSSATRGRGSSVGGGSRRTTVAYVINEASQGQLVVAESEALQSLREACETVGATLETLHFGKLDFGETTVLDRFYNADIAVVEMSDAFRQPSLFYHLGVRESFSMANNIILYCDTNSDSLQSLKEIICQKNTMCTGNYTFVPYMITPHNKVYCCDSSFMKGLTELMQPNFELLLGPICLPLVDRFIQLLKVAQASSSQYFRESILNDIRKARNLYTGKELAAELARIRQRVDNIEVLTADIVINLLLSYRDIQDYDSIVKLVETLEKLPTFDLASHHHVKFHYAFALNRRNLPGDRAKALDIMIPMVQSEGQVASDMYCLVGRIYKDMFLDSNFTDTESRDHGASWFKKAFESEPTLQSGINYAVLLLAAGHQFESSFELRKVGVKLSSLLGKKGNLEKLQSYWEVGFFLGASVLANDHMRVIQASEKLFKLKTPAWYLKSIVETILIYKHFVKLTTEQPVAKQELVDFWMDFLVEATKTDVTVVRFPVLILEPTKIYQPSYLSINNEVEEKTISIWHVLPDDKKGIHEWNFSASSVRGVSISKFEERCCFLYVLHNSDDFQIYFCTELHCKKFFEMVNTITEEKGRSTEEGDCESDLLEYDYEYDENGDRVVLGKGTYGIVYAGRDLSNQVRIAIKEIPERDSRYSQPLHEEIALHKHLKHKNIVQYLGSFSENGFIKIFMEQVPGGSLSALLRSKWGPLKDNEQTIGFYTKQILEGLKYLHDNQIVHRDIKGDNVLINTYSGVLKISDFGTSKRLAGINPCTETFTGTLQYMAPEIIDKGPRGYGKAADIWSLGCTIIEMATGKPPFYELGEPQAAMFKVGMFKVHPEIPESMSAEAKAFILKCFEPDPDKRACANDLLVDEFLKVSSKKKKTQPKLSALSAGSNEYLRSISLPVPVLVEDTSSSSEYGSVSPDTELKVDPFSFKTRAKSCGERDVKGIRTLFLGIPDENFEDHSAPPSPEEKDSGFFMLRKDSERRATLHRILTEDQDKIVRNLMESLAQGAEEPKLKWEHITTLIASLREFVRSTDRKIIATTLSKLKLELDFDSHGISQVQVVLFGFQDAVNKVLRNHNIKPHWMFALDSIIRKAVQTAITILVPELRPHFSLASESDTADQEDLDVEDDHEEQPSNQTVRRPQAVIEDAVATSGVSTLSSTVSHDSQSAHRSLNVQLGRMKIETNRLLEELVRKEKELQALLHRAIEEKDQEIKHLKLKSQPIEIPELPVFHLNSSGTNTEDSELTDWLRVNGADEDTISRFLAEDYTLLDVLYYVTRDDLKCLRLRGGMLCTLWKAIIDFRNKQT
Excerpt: as §1, §2, §3, §4, §5, §6, §7, §8, §9

[3] = target: T3, CAMK2α (Homo sapiens, UniProt Q9UQM7); conditions: 5 μM HU-MCA-13
T3 construct: amino acids 1-478, Carna (cat. & lot #: 02)
Excerpt: as §1, §2, §3, §4, §5, §6, §7, §8, §9

[4] = target: T4, CDK5 (Homo sapiens, UniProt Q00535); conditions: 5 μM HU-MCA-13
T4 construct: CDK5/p25, amino acids 1 -292/99 -307, Carna; purchased Carna 04-106
T4 sequence (Q00535 whole entry, the tested form may be a part): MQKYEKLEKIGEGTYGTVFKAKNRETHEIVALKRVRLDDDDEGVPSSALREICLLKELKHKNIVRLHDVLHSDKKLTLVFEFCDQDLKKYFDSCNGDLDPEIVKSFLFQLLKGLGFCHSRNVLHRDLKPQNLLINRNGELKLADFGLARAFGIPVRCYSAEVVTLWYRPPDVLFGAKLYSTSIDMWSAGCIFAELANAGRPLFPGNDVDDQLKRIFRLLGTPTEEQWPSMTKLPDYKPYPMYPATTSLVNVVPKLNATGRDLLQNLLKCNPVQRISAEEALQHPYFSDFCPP
T4 sequence (Q15078 99-307 partner limits assumed): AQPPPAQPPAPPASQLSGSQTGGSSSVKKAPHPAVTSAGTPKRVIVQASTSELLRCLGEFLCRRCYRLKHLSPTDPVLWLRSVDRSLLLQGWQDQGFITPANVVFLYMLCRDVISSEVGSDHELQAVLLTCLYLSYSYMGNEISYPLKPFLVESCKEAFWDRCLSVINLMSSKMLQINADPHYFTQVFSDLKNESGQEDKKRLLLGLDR
Excerpt: as §1, §2, §3, §4, §5, §6, §7, §8, §9

[5] = target: T5, EGFR (Homo sapiens, UniProt P00533); conditions: 5 μM HU-MCA-13
T5 construct: amino acids 668-1210, BPS Bio (cat. & lot #: 40187,; purchased BPS Bio 40187
T5 sequence (P00533 668-1210): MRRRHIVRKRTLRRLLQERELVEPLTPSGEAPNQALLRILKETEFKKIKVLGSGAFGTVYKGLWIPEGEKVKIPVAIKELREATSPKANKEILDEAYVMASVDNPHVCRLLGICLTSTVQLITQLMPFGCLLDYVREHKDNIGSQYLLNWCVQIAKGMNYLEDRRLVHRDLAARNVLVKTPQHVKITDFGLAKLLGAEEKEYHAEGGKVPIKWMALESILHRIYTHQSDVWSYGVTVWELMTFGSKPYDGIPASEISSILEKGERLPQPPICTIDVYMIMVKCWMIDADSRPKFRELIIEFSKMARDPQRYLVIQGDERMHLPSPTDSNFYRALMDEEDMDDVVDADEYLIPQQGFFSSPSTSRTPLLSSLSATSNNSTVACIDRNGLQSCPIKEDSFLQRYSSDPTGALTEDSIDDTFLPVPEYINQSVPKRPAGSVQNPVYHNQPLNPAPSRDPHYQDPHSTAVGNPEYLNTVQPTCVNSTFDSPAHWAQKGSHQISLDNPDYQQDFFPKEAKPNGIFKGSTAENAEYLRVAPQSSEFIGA
Excerpt: as §1, §2, §3, §4, §5, §6, §7, §8, §9

[6] = target: T6, ERK2 (Homo sapiens, UniProt P28482); conditions: 5 μM HU-MCA-13
T6 construct: ERK2, amino acids 1-360, Carna; purchased Carna 04-143
Excerpt: as §1, §2, §3, §4, §5, §6, §7, §8, §9

[7] = target: T7, FGFR 1 (Homo sapiens, UniProt P11362); conditions: 5 μM HU-MCA-13
T7 construct: 396-820, Carna (cat. & lot #: 08); purchased Carna 08-133
Excerpt: as §1, §2, §3, §4, §5, §6, §7, §8, §9

[8] = target: T8, GSK3β (Homo sapiens, UniProt P49841); conditions: 5 μM HU-MCA-13
T8 construct: GSK3β, amino acids 1 -420, Carna (cat. & lot #: 04-141/13CBS-; purchased Carna 04-141
T8 sequence (P49841 whole entry, the tested form may be a part): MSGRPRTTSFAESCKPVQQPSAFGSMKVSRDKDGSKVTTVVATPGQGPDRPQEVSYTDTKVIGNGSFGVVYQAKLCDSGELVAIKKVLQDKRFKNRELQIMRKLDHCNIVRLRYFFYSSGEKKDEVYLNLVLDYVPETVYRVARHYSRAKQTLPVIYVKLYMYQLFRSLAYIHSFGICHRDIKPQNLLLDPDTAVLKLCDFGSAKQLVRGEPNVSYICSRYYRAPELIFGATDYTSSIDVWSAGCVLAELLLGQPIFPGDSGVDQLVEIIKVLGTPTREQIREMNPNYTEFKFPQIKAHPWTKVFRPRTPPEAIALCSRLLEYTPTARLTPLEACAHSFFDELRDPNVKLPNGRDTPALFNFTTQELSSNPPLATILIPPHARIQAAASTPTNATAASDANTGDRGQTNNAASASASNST
Excerpt: as §1, §2, §3, §4, §5, §6, §7, §8, §9

[9] = target: T9, IKKβ (Homo sapiens, UniProt O14920); conditions: 5 μM HU-MCA-13
T9 construct: purchased Invitrogen PV3836
T9 sequence (O14920 whole entry): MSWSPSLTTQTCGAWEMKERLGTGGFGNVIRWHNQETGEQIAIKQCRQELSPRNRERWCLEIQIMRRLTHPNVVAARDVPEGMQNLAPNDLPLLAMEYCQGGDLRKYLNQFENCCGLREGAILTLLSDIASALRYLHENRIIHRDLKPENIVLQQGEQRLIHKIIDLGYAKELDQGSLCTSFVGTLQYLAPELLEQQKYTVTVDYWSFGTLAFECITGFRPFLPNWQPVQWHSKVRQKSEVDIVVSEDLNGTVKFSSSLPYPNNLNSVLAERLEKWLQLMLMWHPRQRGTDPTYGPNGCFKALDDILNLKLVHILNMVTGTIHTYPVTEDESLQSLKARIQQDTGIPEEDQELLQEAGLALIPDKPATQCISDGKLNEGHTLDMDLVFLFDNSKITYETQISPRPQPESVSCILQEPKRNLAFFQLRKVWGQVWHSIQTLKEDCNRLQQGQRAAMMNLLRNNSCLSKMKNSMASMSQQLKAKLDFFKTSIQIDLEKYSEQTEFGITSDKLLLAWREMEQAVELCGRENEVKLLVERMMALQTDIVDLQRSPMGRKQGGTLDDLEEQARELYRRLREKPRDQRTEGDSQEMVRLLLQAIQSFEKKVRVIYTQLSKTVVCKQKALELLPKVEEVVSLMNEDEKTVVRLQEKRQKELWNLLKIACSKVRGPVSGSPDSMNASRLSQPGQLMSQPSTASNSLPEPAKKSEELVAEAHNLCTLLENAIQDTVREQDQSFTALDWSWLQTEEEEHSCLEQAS
Excerpt: as §1, §2, §3, §4, §5, §6, §7, §8, §9

[10] = target: T10, JNK3 (Homo sapiens, UniProt P53779); conditions: 5 μM HU-MCA-13
T10 construct: JNK 3, amino acids 1 -426, Carna; purchased Carna 04-150
T10 sequence (P53779 39-464): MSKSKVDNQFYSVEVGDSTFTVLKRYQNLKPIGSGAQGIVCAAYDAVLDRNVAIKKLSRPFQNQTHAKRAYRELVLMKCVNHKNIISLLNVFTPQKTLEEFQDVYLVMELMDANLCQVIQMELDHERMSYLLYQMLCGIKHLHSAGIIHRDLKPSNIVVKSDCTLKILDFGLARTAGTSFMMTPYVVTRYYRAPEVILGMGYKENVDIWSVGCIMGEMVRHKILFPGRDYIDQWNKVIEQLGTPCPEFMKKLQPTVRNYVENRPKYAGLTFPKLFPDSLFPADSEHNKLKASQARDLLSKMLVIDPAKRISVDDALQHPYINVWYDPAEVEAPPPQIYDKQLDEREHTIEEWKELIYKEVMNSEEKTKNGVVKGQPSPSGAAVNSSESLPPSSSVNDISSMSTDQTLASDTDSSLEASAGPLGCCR
Excerpt: as §1, §2, §3, §4, §5, §6, §7, §8, §9

[11] = target: T11, PDGFRβ (Homo sapiens, UniProt P09619); conditions: 5 μM HU-MCA-13
T11 construct: PDGFRβ, amino acids 557 -1106, Carna; purchased Carna 08-158
T11 sequence (P09619 557-1106): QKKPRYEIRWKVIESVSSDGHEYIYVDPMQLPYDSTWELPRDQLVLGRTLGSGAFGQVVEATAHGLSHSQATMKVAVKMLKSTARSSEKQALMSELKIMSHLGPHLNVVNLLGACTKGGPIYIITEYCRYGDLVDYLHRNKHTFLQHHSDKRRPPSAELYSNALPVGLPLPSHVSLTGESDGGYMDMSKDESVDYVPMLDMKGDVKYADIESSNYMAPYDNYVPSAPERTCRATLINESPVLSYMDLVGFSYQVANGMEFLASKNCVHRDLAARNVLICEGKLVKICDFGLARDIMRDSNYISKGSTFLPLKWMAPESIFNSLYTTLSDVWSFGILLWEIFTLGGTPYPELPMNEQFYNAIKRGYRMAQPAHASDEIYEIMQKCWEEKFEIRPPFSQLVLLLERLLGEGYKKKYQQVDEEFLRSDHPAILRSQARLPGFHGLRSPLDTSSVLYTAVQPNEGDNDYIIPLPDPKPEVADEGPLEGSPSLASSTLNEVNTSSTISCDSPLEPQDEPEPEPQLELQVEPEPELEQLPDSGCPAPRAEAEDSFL
Excerpt: as §1, §2, §3, §4, §5, §6, §7, §8, §9

[12] = target: T12, PKACα (Homo sapiens, UniProt P17612); conditions: 5 μM HU-MCA-13
T12 construct: PKACα, amino acids 1 -351, Carna (cat. & lot #: 01 -127/10CBS -0315N)/; purchased Carna 01-127
Excerpt: as §1, §2, §3, §4, §5, §6, §7, §8, §9

[13] = target: T13, TRKA (Homo sapiens, UniProt P04629); conditions: 5 μM HU-MCA-13; intracellular kinase domain
T13 construct: purchased BPS Bio 40280 (lot 151113G)
Excerpt: as §1, §2, §3, §4, §5, §6, §7, §8, §9

T1 sequence (P31749 104-480): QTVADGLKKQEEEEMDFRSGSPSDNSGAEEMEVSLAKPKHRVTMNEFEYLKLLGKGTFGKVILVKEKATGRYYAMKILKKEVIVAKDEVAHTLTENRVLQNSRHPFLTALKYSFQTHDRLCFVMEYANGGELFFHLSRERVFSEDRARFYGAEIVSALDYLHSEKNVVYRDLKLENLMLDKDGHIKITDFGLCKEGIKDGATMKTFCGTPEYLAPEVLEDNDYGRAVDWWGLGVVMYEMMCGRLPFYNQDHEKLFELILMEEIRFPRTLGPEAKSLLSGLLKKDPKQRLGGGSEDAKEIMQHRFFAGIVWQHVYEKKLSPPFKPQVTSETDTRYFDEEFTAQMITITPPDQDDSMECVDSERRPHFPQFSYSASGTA

C=CCC1CCCC(CCC(=O)O)C1=C (stereo not shown) [HU-MCA-13, 3-(3-allyl-2-methylenecyclohexyl)propanoic acid]
no effects: effect on kinase activity [1] | effect on kinase activity [2] | effect on kinase activity [3] | effect on kinase activity [4] | effect on kinase activity [5] | effect on kinase activity [6] | effect on kinase activity [7] | effect on kinase activity [8] | effect on kinase activity [9] | effect on kinase activity [10] | effect on kinase activity [11] | effect on kinase activity [12] | modulation of phosphorylation activity [13]
